This note sets out measurements from PMC12298815 (Pharmaceutics, 2025).

A word on the Cmax: it is the maximum level reached in the sampled fluid or tissue. As usually defined, the Tmax is the time from dosing to the highest level. In general, bioavailability refers to dose-corrected exposure relative to a reference, in per cent. Higher therefore signals good availability.

Molecules are shown by their SMILES. Read-outs that look alike come from different tables or passages of the source.

Data set [1] in a line: In vivo pharmacokinetics in rats. As to conditions: rat; for AUC(0-inf): read-out: AUCinf of DT; for AUC(0-t): read-out: AUClast of DT; for half-life: read-out: T1/2 of DT (converted). The protocol:
Pharmacokinetic parameters were calculated using a non-compartmental analysis model with WinNonlin® software version 5.3 (Pharsight Corp., Mountain View, CA, USA). All quantitative data are presented as mean ± standard deviation (SD) or standard error of the mean (SEM), as indicated. Statistical analyses were performed using one-way analysis of variance (ANOVA) to assess differences among groups, followed by Tukey’s post hoc test for multiple comparisons. A p-value less than 0.05 (p < 0.05) was considered statistically significant.

A further data set relates to rat intestinal segments. In words: In situ single-pass rat intestinal perfusion (Peff). Format: in vivo, Sprague–Dawley rats. The settings on record: low-permeability reference, 100 µg/mL in perfusion buffer. The protocol:
The in situ single-pass intestinal effective permeability (Peff) of AT/DT dispersed in 0.5% DMSO and AT/DT-NE#E was evaluated in rats. Sprague–Dawley rats were selected due to their well-characterized gastrointestinal physiology, suitability for serial perfusion sampling, and widespread use in oral absorption and permeability studies. Prior to the procedure, the rats were fasted for 12–16 h with free access to water. Anesthesia was induced via intramuscular injection of a tiletamine·HCl–zolazepam mixture (1:1, w/w; 40 mg/kg). With the animals in a supine position, a midline longitudinal incision was made to expose the abdominal cavity. […]
After a 30 min equilibration period to establish steady-state conditions, outlet perfusates were collected at 15 min intervals over a period of 120 min. […] It was perfused under identical conditions, and fluorescence was measured at excitation/emission wavelengths of 494/512 nm using a multimode microplate reader (PerkinElmer).
Body temperature was maintained throughout the experiment using heated pads and a heat lamp. At the end of the study, the length and radius of each perfused intestinal segment were carefully measured without stretching. […]
The outlet concentrations of AT and DT were quantified via HPLC as described previously. […]

`CC(=O)O[C@@]12CO[C@@H]1C[C@H](O)[C@@]1(C)C(=O)[C@H](O)C3=C(C)[C@@H](OC(=O)[C@H](O)[C@@H](NC(=O)OC(C)(C)C)c4ccccc4)C[C@@](O)([C@@H](OC(=O)c4ccccc4)[C@H]21)C3(C)C` [DT, Docetaxel]: in data set [1] (plasma, IV, DT 5 mg/kg), the Cmax is 479 ± 45.3 ng/mL, the AUC(0-inf) is 4190 ± 264 ng·h/mL, the AUC(0-t) came out at 1450 ± 109 ng·h/mL and the half-life is 8.33 ± 7.84 h. Also, in data set [1] (plasma, oral, DT 10 mg/kg), the Tmax turned out to be 8 h, the bioavailability stood at 7.22 ± 0.924%, the AUC(0-inf) is 264 ± 38.3 ng·h/mL and the AUC(0-t) is 210 ± 26.8 ng·h/mL. The half-life in data set [1] (plasma, oral, DT 10 mg/kg) is 8.67 ± 0.881 h. Moreover, the “Cmax of DT” value in data set [1] (oral, DT 10 mg/kg) amounted to 21.0 ± 5.17 ng/mL.
`O=C1OC2(c3ccc(O)cc3Oc3cc(O)ccc32)c2ccccc21` [fluorescein]: in the data set with rat intestinal segments, the Peff is recorded as 0.001 ± 0.002 ×10^−4 cm/s.
